Laboratory results reported in the PolyMetriX glass transition set.
± gives the standard deviation of the reports.

First: *Oc1ccc(S(=O)(=O)c2ccc(Oc3ccc(C(C)(C)c4ccc(*)c(C(OC)(C(F)(F)F)C(F)(F)F)c4)cc3C(OC)(C(F)(F)F)C(F)(F)F)cc2)cc1 (repeat unit)
Second: *Oc1ccc2cc(Oc3ccc(S(=O)(=O)c4ccc(*)cc4)cc3)ccc2c1 (repeat unit)
The glass transition temperature of the first is lower: 163.00 °C for the first, 231.00 °C for the second.

First: *C(=O)c1cc2c(cc1Cl)C(=O)N(c1c(C)cc(C)c(N3C(=O)c4cc(*)c(Cl)cc4C3=O)c1C)C2=O (repeat unit)
Second: *C(=O)c1ccc2c(c1)C(=O)N(c1ccc(Cc3ccc(N4C(=O)c5ccc(*)cc5C4=O)cc3)cc1)C2=O (repeat unit)
The glass transition temperature of the first is higher: 371.00 °C for the first, 292.50 ± 9.3 °C for the second.

Going from *c1ccc(Cc2ccc(N3C(=O)c4ccc([Si](C)(C)O[Si](C)(C)O[Si](C)(C)c5ccc6c(c5)C(=O)N(*)C6=O)cc4C3=O)cc2)cc1 (repeat unit) to *c1ccc(Oc2cccc(Oc3ccc(N4C(=O)c5ccc(-c6cccc7c6C(=O)N(*)C7=O)cc5C4=O)cc3)c2)cc1 (repeat unit), the glass transition temperature rises from 220.00 °C to 248.00 ± 25 °C.

First: *CCN(*)C(=O)CCCCCCCCCCC (repeat unit)
Second: *CCCCCCCCCNC(=O)N* (repeat unit)
The glass transition temperature of the first is lower: 10.00 °C for the first, 130.00 °C for the second.

First: *c1cc(C(C)C)c(Oc2ccc(S(=O)(=O)c3ccc(Oc4cc(C)c(C5(*)OC(=O)c6ccccc65)cc4C(C)C)cc3)cc2)cc1C (repeat unit)
Second: *Oc1ccc(S(=O)(=O)c2ccc(Oc3ccc(C(=O)c4cccc(C(=O)c5ccc(*)cc5)c4)cc3)cc2)cc1 (repeat unit)
The glass transition temperature of the first is higher: 230.00 °C for the first, 178.00 °C for the second.

First: *Oc1ccc(NC(=O)c2cc(C(=O)Nc3ccc(*)cc3)cc(C(C)(C)C)c2)cc1 (repeat unit)
Second: *c1cccc(NC(=O)c2ccc(-c3ccc(C(=O)Nc4cccc(S(*)(=O)=O)c4)c(C)c3)cc2C)c1 (repeat unit)
The glass transition temperature of the first is higher: 268.00 °C for the first, 260.00 °C for the second.

Compared with *OC(C)COC(C)COC(=O)c1ccc(C(*)=O)cc1 (repeat unit), *OC(COC(=O)c1ccc(C)cc1C(*)=O)COc1ccc(/N=N/c2ccc(C#N)cc2)cc1 (repeat unit) is higher in glass transition temperature: 37.00 °C for the first, 124.00 °C for the second.

Going from *CC(C)(CC)COC(=O)CCCCCCCCC(=O)O* (repeat unit) to *CC(*)(C)C(=O)OCc1ccc2c(c1)c1ccccc1n2CCCCCCCCCC (repeat unit), the glass transition temperature rises from -69.00 °C to 29.00 °C.

Going from *CC(CC(C)C)S(*)(=O)=O (repeat unit) to *CCC(C)CCC(=O)O* (repeat unit) [Poly(oxycarbonyl-3-methylpentamethylene) ], the glass transition temperature falls from 23.00 °C to -53 ± 0.6 °C.

Compared with *CCOC(=O)Nc1ccc(C)c(NC(=O)OCCOc2cc([N+](=O)[O-])ccc2/N=N/c2cn(*)c3ccccc23)c1 (repeat unit), *CCOCCOCCN1C(=O)c2ccc(C(=O)Oc3ccc(OC(=O)c4ccc5c(c4)C(=O)N(*)C5=O)c(-c4ccccc4)c3)cc2C1=O (repeat unit) is lower in glass transition temperature: 150.00 °C for the first, 105.00 °C for the second.

First: *c1ccc([Si](c2ccccc2)(c2ccccc2)c2ccc(-c3nnc(-c4ccc(-c5nnc(*)o5)o4)o3)cc2)cc1 (repeat unit)
Second: *c1ccc(Oc2cccc(NC(=O)c3ccc(C(=O)Nc4cccc(Oc5ccc(-c6nnc(*)o6)cc5)c4)c(Oc4ccccc4)c3)c2)cc1 (repeat unit)
The glass transition temperature of the first is higher: 276.00 °C for the first, 234.00 °C for the second.

Going from *C(=O)c1ccc2c(c1)C(=O)N(c1cc(OCCCCCCCCCCCCCCCC)cc(N3C(=O)c4ccc(*)cc4C3=O)c1)C2=O (repeat unit) to *CC(*)c1cc(C(=O)OCCCCCCCC)ccc1-c1ccc(OCCCCCCCC)cc1 (repeat unit), the glass transition temperature falls from 179.00 °C to 57.00 °C.

Going from *Oc1ccc(CC(NC(=O)CCc2ccc(OC(*)=O)cc2)C(=O)OCC)cc1 (repeat unit) to *Oc1cc(OC(=O)c2ccc(OCCCC)cc2)c(OC(=O)C(C)CCC(*)=O)cc1OC(=O)c1ccc(OCCCC)cc1 (repeat unit), the glass transition temperature falls from 96.00 °C to 55.00 °C.

Compared with *c1ccc(Oc2ccc3ccccc3c2-c2c(Oc3ccc(N4C(=O)c5ccc(NC(=O)Nc6cccc7c(NC(=O)Nc8ccc9c(c8)C(=O)N(*)C9=O)cccc67)cc5C4=O)cc3)ccc3ccccc23)cc1 (repeat unit), *c1ccc(Oc2cccc(Oc3ccc(N4C(=O)c5ccc(Oc6ccc(Sc7ccc(Oc8ccc9c(c8)C(=O)N(*)C9=O)cc7)cc6)cc5C4=O)cc3)c2)cc1 (repeat unit) is lower in glass transition temperature: 297.00 °C for the first, 178.00 °C for the second.

First: *CCOP(=O)(/N=N/c1ccc(Oc2ccc(/N=N/P(=O)(O*)OCC)cc2)cc1)OCC (repeat unit)
Second: *CC(*)(C)C(=O)OCCCCCCOc1ccc(/N=N/c2ccc(C#N)cc2)cc1 (repeat unit)
The glass transition temperature of the first is lower: 22.00 °C for the first, 61.00 °C for the second.

Compared with *c1cccc(N2C(=O)c3cccc(Oc4ccc(Sc5ccc(Oc6cccc7c6C(=O)N(*)C7=O)cc5)cc4)c3C2=O)c1 (repeat unit), *c1ccc(Oc2ccc(Sc3ccc(Oc4ccc(N5C(=O)c6ccc(Oc7ccc(Oc8ccc9c(c8)C(=O)N(*)C9=O)cc7)cc6C5=O)cc4)cc3)cc2)cc1 (repeat unit) is lower in glass transition temperature: 231.00 °C for the first, 201.00 °C for the second.

Compared with */C=C/C1CC(*)C(C#N)(C[Si](C)(C)C)C1 (repeat unit), *OC(=O)C(NC(=O)CCCCC(=O)NC(C(=O)OC1COC2C(*)COC12)C(C)CC)C(C)CC (repeat unit) is lower in glass transition temperature: 128.00 °C for the first, 102.00 °C for the second.

Going from *C(=O)c1ccc2c(c1)C(=O)N(c1ccc(Oc3ccc(C(=O)c4ccc(Oc5ccc(C(=O)c6ccc(Oc7ccc(N8C(=O)c9ccc(*)cc9C8=O)cc7)cc6)cc5)cc4)cc3)cc1)C2=O (repeat unit) to *C(=O)c1ccc(Oc2ccc(-c3ccc(Oc4ccc(C(=O)c5ccc6c(c5)C(=O)N(c5ccc(Cc7ccc(N8C(=O)c9ccc(*)cc9C8=O)cc7)cc5)C6=O)cc4)cc3)cc2)cc1 (repeat unit), the glass transition temperature rises from 215.00 °C to 241.00 °C.

Compared with *c1ccc2c(c1)C(CCCCCCCC)(CCCCCCCC)c1cc(*)ccc1-2 (repeat unit) [poly(9,9-dioctylfluorene)], *CCCCCCCCCCCCOc1ccc(C(C)Cc2ccc(-c3ccc(O*)cc3)cc2)cc1 (repeat unit) is lower in glass transition temperature: 71.00 ± 10 °C for the first, 40.00 °C for the second.

First: *[Se]c1c(Cl)c(Cl)c(*)c(Cl)c1Cl (repeat unit)
Second: *CC(*)OC(=O)c1cccc(Cl)c1 (repeat unit)
The glass transition temperature of the first is higher: 104.00 °C for the first, 61.8 °C for the second.

Compared with *CCC(=O)Nc1ccc(Cc2ccc(NC(=O)CCN3C(=O)c4ccc(C(=O)c5ccc6c(c5)C(=O)N(*)C6=O)cc4C3=O)cc2)cc1 (repeat unit), *C(=O)N1C(=O)N(C(=O)c2ccc3c(c2)C(=O)N(c2ccc(Oc4ccc(N5C(=O)c6ccc(*)cc6C5=O)cc4)cc2)C3=O)C(CC)(CC)C1=O (repeat unit) is lower in glass transition temperature: 221.00 °C for the first, 160.00 °C for the second.

First: *NC(CCC(=O)OCC)C(*)=O (repeat unit)
Second: *CC(*)(C)C(=O)OC(OCC)C(F)(F)F (repeat unit)
The glass transition temperature of the first is lower: 0.00 °C for the first, 60.00 °C for the second.

First: *O[Si](*)(C)CCCCOc1ccc(C(=O)Oc2ccc(C#N)cc2)cc1 (repeat unit)
Second: *Oc1ccc(C(C)(CC)c2ccc(OC(=O)OC3C(C)(C)C(OC(*)=O)C3(C)C)cc2)cc1 (repeat unit)
The glass transition temperature of the first is lower: 16.00 °C for the first, 124.00 °C for the second.

Compared with *c1ccc(Oc2ccc(C(=O)c3ccc(Oc4ccc(N5C(=O)c6ccc(Oc7ccc8c(c7)C(=O)N(*)C8=O)cc6C5=O)cc4)cc3)cc2)cc1 (repeat unit), *c1ccc(Oc2ccc(C(=O)c3cccc(C(=O)c4ccc(Oc5ccc(-n6c(=O)c7cc8c(=O)n(*)c(=O)c8cc7c6=O)cc5C(F)(F)F)cc4)n3)cc2)c(C(F)(F)F)c1 (repeat unit) is lower in glass transition temperature: 243.00 °C for the first, 227.10 °C for the second.

Going from *CC(*)(C)C(=O)Oc1ccc(C)cc1C (repeat unit) to *CC(*)(CC(=O)Oc1ccccc1)C(=O)Oc1ccccc1 (repeat unit), the glass transition temperature rises from 109.00 °C to 132.00 °C.

Going from *CCCCCCOc1ccc(-c2cc(-c3ccccc3)c(-c3ccc(NC(=O)c4ccc(C(=O)Nc5ccc(-c6c(-c7ccccc7)cc(-c7ccc(O*)cc7)cc6-c6ccccc6)cc5)cc4)cc3)c(-c3ccccc3)c2)cc1 (repeat unit) to *c1ccc(-c2ccc(-c3nc4cc(Oc5ccc6nc(-c7ccccc7)c(*)nc6c5)ccc4nc3-c3ccccc3)cc2)cc1 (repeat unit), the glass transition temperature rises from 127.00 °C to 410.00 °C.

Going from *c1ccc2cc(-c3nc4ccc(-c5ccc6nc(*)[nH]c6c5)cc4[nH]3)ccc2c1 (repeat unit) to *c1ccc2c(c1)C(=O)N(c1cc(C(c3ccc(O)c(N4C(=O)c5ccc(C(*)(C(F)(F)F)C(F)(F)F)cc5C4=O)c3)(C(F)(F)F)C(F)(F)F)ccc1O)C2=O (repeat unit), the glass transition temperature falls from 403.00 °C to 330.00 °C.

First: *Nc1ccc(NC(=O)c2ccc(NC(=O)CCCCCCCCCCC(=O)Nc3ccc(C(*)=O)cc3)cc2)cc1C(=O)OCCCCCCCCCCCCCCCCCC (repeat unit)
Second: *c1ccc2c(c1)C(=O)N(c1ccc(C(=O)Nc3ccc(C(c4ccc(NC(=O)c5ccc(N6C(=O)c7ccc(C(*)(C(F)(F)F)C(F)(F)F)cc7C6=O)c(C)c5)cc4)(C(F)(F)F)C(F)(F)F)cc3)cc1C)C2=O (repeat unit)
The glass transition temperature of the first is lower: 196.50 °C for the first, 344.00 °C for the second.

Going from *OS(=O)(=O)c1cccc(S(=O)(=O)Oc2ccc(C(C)(CC)c3ccc(*)cc3)cc2)c1 (repeat unit) to *Oc1ccc(S(=O)c2ccc(Oc3ccc(C(C)(C)c4ccc(*)cc4)cc3)cc2)cc1 (repeat unit), the glass transition temperature rises from 147.00 °C to 165.00 °C.

Going from *c1cccc(P(=O)(c2ccccc2)c2cccc(-n3c(=O)c4cc5c(=O)n(*)c(=O)c5c(-c5cc(C(F)(F)F)cc(C(F)(F)F)c5)c4c3=O)c2)c1 (repeat unit) to *Oc1ccc(C2(c3ccc(OC(=O)CCC(*)=O)cc3)c3ccccc3-c3ccccc32)cc1 (repeat unit), the glass transition temperature falls from 299.00 °C to 234.00 °C.

First: *CC1(*)CC(=O)N(c2ccccc2)C1=O (repeat unit)
Second: *Cc1ccccc1C[Si](*)(C)C (repeat unit)
The glass transition temperature of the first is higher: 236.00 °C for the first, 75.00 °C for the second.
